Assay: BBB permeability: mass spectrometry of CSF of treated wild-type mice
Format: in vivo, mouse
Conditions: 50 mg/kg/day in diet, 1 week
Method: FIGS. 14. (A), (B) and (C) Compound 9 is able to cross the BBB. Wild-type mice (n=5) were fed a diet containing 50 mg/kg/day of compound 9 for one week and then sacrificed. Control animals (n=5) received placebo-containing pellets. CSF was collected and analyzed by mass spectrometry (MS) to detect compound 9. The pick corresponding to compound 9 is indicated. […] Because of the strong hydrophobic properties of the compound, elution was in 100% methanol. Under these conditions most of compound 9 was found protonated and complexed as follows: 1 molecule of compound 9 (protonated):3 molecules of water (1 protonated):1 molecule of methanol. The total mass of the eluted complex was 369.4. This complex is only generated when adding methanol during the elution process for the MS. Compound 9 was never observed in control animals.
To assess BBB permeability properties, a group of 5 wild-type mice received 50 mg/kg/day of compound 9 for 1 week. Animals were then sacrificed and CSF collected for biochemical analysis. Treatment was limited to 1 week because this length of time is usually sufficient to reach equilibrium in biological fluids (Ito, et al., 1998; Singh, 2006; Houston and Galetin, 2008). Concentration and duration of the treatment was based on previous studies with drug-like compounds having similar mass and solubility properties (Ito, et al., 1998; Singh, 2006; Houston and Galetin, 2008).

- detection in CSF (crosses blood brain barrier): detect compound 9 in all treated animals
Compound: O=c1c(Cl)c2oc3ccccc3nc-2c2ccccc12 [Compound 9]

— US9522124B2, “Methods for treating Alzheimer's disease” (Wisconsin Alumni Research Foundation, priority 2011, dated 2016)
